Test results as given in patent US9951056B2, “Substituted nicotinamide inhibitors of BTK and their preparation and use in the treatment of cancer, inflammation and autoimmune disease” (BEIJING INNOCARE PHARMA TECH CO., LTD., priority 2013, dated 2018).

Molecular target: BTK (Homo sapiens (Human), UniProt Q06187)
Test: ADP-Glo kinase biochemical assay, IC50 determination of BTK inhibitors
Details: ADP-Glo, ATP 50 uM; values given as bins
Experimental: Biological Properties: IC50 Determination of BTK Inhibitors in ADP-Glo Kinase Biochemical Assay
Those skilled in the art will appreciate that a variety of assay formats may be used to determine the activity of the compounds described herein.
ADP-Glo™ Kinase Assay (Cat. V9102, 10000 Tests), Components: • 1×50 ml ADP-Glo™ Reagent, • 1×100 ml Kinase Detection Buffer, • 1× Kinase Detection Substrate (Lyophilized), • 1×5 ml Ultra Pure ATP, 10 mM • 1×5 ml ADP, 10 mM
• Enzyme concentration: 8 ng/5 ul. • ATP concentration: 50 uM • Substrate (peptide) concentration: 0.2 mg/ml. • Reaction buffer composition: 40 mM Tris-HCl pH7.5, 10 mM MgCl2, 2 mM MnCl2, 0.1 mg/mL BSA, 0.05 mM DTT. • Test compound concentration: DMSO≤0.5%. Methods: Compound Dosage Gradient Solution Preparation: […]
1× and 2× assay buffer were made at first. BTK kinase was diluted with 1× assay buffer but substrate was diluted with 2× assay buffer. 1 ul of diluted compound was transferred into 384-well assay plate, and then 2.0 ul of enzyme solution was added, and spun at 2000 rpm for 1 min. This mixture was incubated at 24° C. for 30 mins. 2 ul of peptide substrate/ATP mixture was added into the assay plate to start the reaction. The mixture was mixed thoroughly and then the 384-well plate was spun and incubated at 24° C. for 60 mins. 5.0 ul of ADP-Glo Reagent was added to stop the kinase activity and deplete the ATP unconsumed, and the plate was mixed thoroughly and incubated at 24° C. for 40 min. Then, 10.0 ul of Kinase Detection reagent was added, and the plate was centrifuged and then kept at 24° C. for 30 min. The luminescence signal was read on Envision.
IC50 values of compounds were calculated from a 4-parameter fit using Equation (2): Y=Bottom+(TOP-Bottom)/(1+((C/X)^hillslope)) Equation (2)
In Equation 2, Y represents % inhibition, X is the log value of the test compound concentration. IC50 was the concentration of compound where half of maximal inhibition was achieved.
All data was analyzed with IDBS XLfit5 software (ID Business Solutions Ltd., UK).

Chain of BTK (Q06187 whole entry): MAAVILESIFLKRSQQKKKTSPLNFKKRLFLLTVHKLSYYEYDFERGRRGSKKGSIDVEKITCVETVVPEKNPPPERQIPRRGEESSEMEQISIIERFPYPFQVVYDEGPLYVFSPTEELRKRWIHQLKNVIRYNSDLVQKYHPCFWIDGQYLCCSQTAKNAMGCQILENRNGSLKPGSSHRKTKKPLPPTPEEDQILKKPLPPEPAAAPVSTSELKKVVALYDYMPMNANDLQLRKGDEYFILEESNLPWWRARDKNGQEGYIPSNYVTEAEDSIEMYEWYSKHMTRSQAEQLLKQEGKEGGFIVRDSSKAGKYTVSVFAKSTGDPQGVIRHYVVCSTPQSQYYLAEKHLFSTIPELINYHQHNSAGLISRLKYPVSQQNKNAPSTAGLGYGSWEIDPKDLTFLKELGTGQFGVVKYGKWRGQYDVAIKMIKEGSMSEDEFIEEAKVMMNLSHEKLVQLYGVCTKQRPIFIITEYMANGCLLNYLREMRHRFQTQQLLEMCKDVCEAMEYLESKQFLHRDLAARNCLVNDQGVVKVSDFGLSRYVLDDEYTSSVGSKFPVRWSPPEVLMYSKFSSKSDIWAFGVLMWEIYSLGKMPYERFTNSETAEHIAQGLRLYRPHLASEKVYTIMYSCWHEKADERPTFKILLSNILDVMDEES

Row | Compound | IC50
1 | C=CC(=O)N1CC(n2cc(C(N)=O)c(-c3ccc(Oc4ccccc4)cc3)n2)C1 [Example 15, 1-(1-acryloylazetidin-3-yl)-3-(4-phenoxyphenyl)-1H-pyrazole-4-carboxamide] | < 500 nM
2 | C=CS(=O)(=O)N1CCN(c2ccc(C(N)=O)c(-c3ccc(Oc4ccccc4)cc3)n2)CC1 [Example 62, 2-(4-phenoxyphenyl)-6-(4-(vinylsulfonyl)piperazin-1-yl)nicotinamide] | < 500 nM
3 | C=CC(=O)N1CC[C@@H](n2cc(C(N)=O)c(-c3ccc(Oc4ccccc4)cc3)n2)C1 [Example 20, (R)-1-(1-acryloylpyrrolidin-3-yl)-3-(4-phenoxyphenyl)-1H-pyrazole-4-carboxamide] | < 500 nM
4 | C=CC(=O)N1CCCC(c2nc(-c3ccc(Oc4ccccc4)cc3)c(C(N)=O)o2)C1 (centres unmarked) [Example 42, 2-(1-acryloylpiperidin-3-yl)-4-(4-phenoxyphenyl)oxazole-5-carboxamide] | < 500 nM
5 | C=CC(=O)N1CCCC(c2nc(-c3ccc(Oc4ccccc4)cc3)c(C(N)=O)s2)C1 (centres unmarked) [Example 40, 2-(1-acryloylpiperidin-3-yl)-4-(4-phenoxyphenyl)thiazole-5-carboxamide] | < 500 nM
6 | C=CS(=O)(=O)N1CCC(c2ccc(C(N)=O)c(-c3ccc(Oc4ccccc4)cc3)n2)CC1 [Example 63, 2-(4-phenoxyphenyl)-6-(1-(vinylsulfonyl)piperidin-4-yl)nicotinamide] | < 500 nM
7 | C=CC(=O)N1CCC(c2ccc(C(N)=O)c(-c3ccc(Oc4ccccc4)cc3)c2)CC1 [Example 55, 5-(1-acryloylpiperidin-4-yl)-4′-phenoxybiphenyl-2-carboxamide] | < 500 nM
8 | C=CC(=O)N1CCC(c2ncc(C(N)=O)c(-c3ccc(Oc4ccccc4)cc3)n2)CC1 [Example 21, 2-(1-acryloylpiperidin-4-yl)-4-(4-phenoxyphenyl)pyrimidine-5-carboxamide] | < 500 nM
9 | C=CC(=O)N1CCCC(c2nc(C(N)=O)c(-c3ccc(Oc4ccccc4)cc3)o2)C1 (centres unmarked) [Example 54, 2-(1-acryloylpiperidin-3-yl)-5-(4-phenoxyphenyl)oxazole-4-carboxamide] | < 500 nM
10 | C=CC(=O)N1CCC(c2nc(C(N)=O)c(-c3ccc(Oc4ccccc4)cc3)s2)CC1 [Example 49, 2-(1-acryloylpiperidin-4-yl)-5-(4-phenoxyphenyl)thiazole-4-carboxamide] | < 500 nM
11 | C=CC(=O)N1CCN(c2ccc(C(N)=O)c(-c3ccc(F)c(OC)c3)n2)CC1 [Example 30, 6-(4-acryloylpiperazin-1-yl)-2-(4-fluoro-3-methoxyphenyl)nicotinamide] | ≥ 1000 nM
12 | C=CC(=O)N1CCN(c2ccc(C(N)=O)c(-c3ccc(Oc4ccccc4)nc3)n2)CC1 [Example 31, 6-(4-acryloylpiperazin-1-yl)-6′-phenoxy-2,3′-bipyridine-3-carboxamide] | 500 to 1000 nM
13 | C=CC(=O)N1CC[C@H](n2cc(C(N)=O)c(-c3ccc(Oc4ccccc4)cc3)n2)C1 [Example 19, (S)-1-(1-acryloylpyrrolidin-3-yl)-3-(4-phenoxyphenyl)-1H-pyrazole-4-carboxamide] | < 500 nM
14 | C=CC(=O)Nc1ccc(-c2ccc(C(N)=O)c(-c3ccc(Oc4ccccc4)cc3)n2)cc1 [Example 7, 6-(4-acrylamidophenyl)-2-(4-phenoxyphenyl)nicotinamide] | < 500 nM
15 | C=CC(=O)N1CCN(c2ccc(C(N)=O)c(-c3ccc(Oc4ccccc4)cc3)n2)CC1 [Example 5, 6-(4-acryloylpiperazin-1-yl)-2-(4-phenoxyphenyl)nicotinamide] | < 500 nM
16 | C=CC(=O)N1CCC(n2cc(C(N)=O)c(-c3ccc(Oc4ccccc4)cc3)n2)CC1 [Example 12, 1-(1-acryloylpiperidin-4-yl)-3-(4-phenoxyphenyl)-1H-pyrazole-4-carboxamide] | < 500 nM
17 | C=CC(=O)N1CCN(c2ccc(C(N)=O)c(-c3ccc(Oc4ccccc4)cc3)c2)CC1 [Example 57, 5-(4-acryloylpiperazin-1-yl)-4′-phenoxybiphenyl-2-carboxamide] | < 500 nM
18 | C=CC(=O)N1CCN(c2ccc(C(N)=O)c(-c3ccc(Oc4ccc(C#N)cc4)cc3)n2)CC1 [Example 27, 6-(4-acryloylpiperazin-1-yl)-2-(4-(4-cyanophenoxy)phenyl)nicotinamide] | ≥ 1000 nM
19 | C=CC(=O)NC1CCN(c2ccc(C(N)=O)c(-c3ccc(Oc4ccccc4)cc3)n2)CC1 [Example 9, 6-(4-acrylamidopiperidin-1-yl)-2-(4-phenoxyphenyl)nicotinamide] | 500 to 1000 nM
20 | C=CC(=O)N1CCN(c2nc(-c3ccc(Oc4ccccc4)cc3)c(C(N)=O)s2)CC1 [Example 51, 2-(4-acryloylpiperazin-1-yl)-4-(4-phenoxyphenyl)thiazole-5-carboxamide] | < 500 nM
21 | C=CC(=O)N1CCN(c2ccc(C(N)=O)c(-c3ccc(OC4CCC(F)(F)CC4)cc3)n2)CC1 [Example 60, 6-(4-acryloylpiperazin-1-yl)-2-(4-((4,4-difluorocyclohexyl)oxy)phenyl)nicotinamide] | < 500 nM
22 | C=CC(=O)N1CCC(n2cc(C(N)=O)c(-c3ccc(Oc4ccccc4)cc3)n2)C1 (centres unmarked) [Example 13, 1-(1-acryloylpyrrolidin-3-yl)-3-(4-phenoxyphenyl)-1H-pyrazole-4-carboxamide] | < 500 nM
23 | C=CC(=O)N1CCN(c2ccc(C(N)=O)c(-c3ccc(C)c(OC)c3)n2)CC1 [Example 29, 6-(4-acryloylpiperazin-1-yl)-2-(3-methoxy-4-methylphenyl)nicotinamide] | < 500 nM
24 | C=CC(=O)N1CCN(c2ccc(C(N)=O)c(-c3ccc(OC4CCCCC4)cc3)n2)CC1 [Example 28, 6-(4-acryloylpiperazin-1-yl)-2-(4-(cyclohexyloxy)phenyl)nicotinamide] | < 500 nM

Same assay, conditions: BTK, head-to-head assays

Row | Compound | improvement in potency over Analogs 1 and 2
25 | C=CC(=O)N1CCN(c2ccc(C(N)=O)c(-c3ccc(Oc4ccccc4)cc3)n2)CC1 [Example 5, 6-(4-acryloylpiperazin-1-yl)-2-(4-phenoxyphenyl)nicotinamide] | ~100 ×

Molecular target: SRC (Homo sapiens (Human), UniProt P12931)
Test: kinase competition binding screen (liganded affinity beads, qPCR) at 1000 nM
Details: BTK versus SRC

Chain of SRC (P12931 whole entry, looked up): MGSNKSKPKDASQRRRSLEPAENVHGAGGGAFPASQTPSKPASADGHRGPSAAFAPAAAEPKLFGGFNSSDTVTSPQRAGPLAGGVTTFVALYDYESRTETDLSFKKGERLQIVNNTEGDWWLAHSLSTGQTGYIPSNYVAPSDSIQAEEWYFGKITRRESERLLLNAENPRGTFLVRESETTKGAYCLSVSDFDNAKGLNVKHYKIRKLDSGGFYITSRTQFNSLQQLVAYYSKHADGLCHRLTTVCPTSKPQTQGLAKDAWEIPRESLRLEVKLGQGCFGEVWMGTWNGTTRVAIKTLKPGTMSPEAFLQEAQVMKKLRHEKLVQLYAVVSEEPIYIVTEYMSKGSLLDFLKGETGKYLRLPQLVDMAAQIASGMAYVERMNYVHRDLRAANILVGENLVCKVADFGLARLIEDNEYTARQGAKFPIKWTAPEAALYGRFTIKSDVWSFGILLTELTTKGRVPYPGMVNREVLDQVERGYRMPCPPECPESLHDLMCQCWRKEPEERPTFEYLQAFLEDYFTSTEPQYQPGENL

Row | Compound | Fold Difference
26 | C=CC(=O)N1CCN(c2ccc(C(N)=O)c(-c3ccc(Oc4ccccc4)cc3)n2)CC1 [Example 5, 6-(4-acryloylpiperazin-1-yl)-2-(4-phenoxyphenyl)nicotinamide] | >100x
